Test results taken from US12011422B2, “Synthetic antibacterial compounds and uses thereof” (priority 2021, dated 2024).
Converted amounts (≈) assume the structure as drawn.

These compounds were tested on a strain of S. aureus (assay: MIC determination (CLSI broth microdilution) against S. aureus). Details: 37° C., 18 hours, lowest concentration showing <10% bacterial growth.
Type: cell-based, Staphylococcus aureus
Protocol: (§1) The protocol for MIC determination is based on the Clinical & Laboratory Standards Institute (CLSI) guidelines. MICs are determined by setting up 96-well microtiter plates with serially diluted concentrations in DMSO or water ranging from 0-256 μg/mL for each compound of the invention (e.g., 256 μg/mL, 128 μg/mL, 64 μg/mL, 32 μg/mL, 16 μg/mL, 8 μg/mL, 4 μg/mL, 2 μg/mL, 1 μg/mL, etc.). The total volume in each plate is about 200 μL, with 2 μL of each serial dilution added to each well. Clinical isolates of various bacteria are obtained from the American Type Culture Collection (ATCC) and colony-resuspended for MIC testing as per CLSI guidelines. Plates are incubated at 37° C. for 18 hours, and optical density is read on a Tecan M1000 Infinite Pro plate reader at 600 nm. At least 3 replicates are done for each query compound. The MIC for each compound is the lowest compound concentration showing <10% bacterial growth.
(§2) The protocol as described in Example 2 was used to determine the minimal inhibitory concentration (MIC) of each of the following compounds against a strain of S. aureus and Pore-TolC E. coli.

First: CC(C)=CCC/C(C)=C/Cc1c(O)cc(-c2cccc(C(F)(F)F)c2)cc1O [MLEB-19101]
Second: CC(C)=CCC/C(C)=C/Cc1c(O)cc(-c2cncnc2)cc1O [MLEB-19129]
The “Staph MIC” value of the first is 8-fold lower: 2 mg/L for the first, 16 mg/L for the second.

`CC(C)=CCC/C(C)=C/Cc1c(O)cc(Br)cc1O` [MLEB-19116] was tested, and the “Staph MIC” value was 8 mg/L.

Same assay, conditions: Staphylococcus aureus, 18 h, 37° C., lowest concentration showing <10% bacterial growth, read-out: Staph MIC

First: CC(C)=CCC/C(C)=C/Cc1c(O)cc(-c2cncnc2)cc1O [MLAP-1913]
Second: CC(C)=CCC/C(C)=C/Cc1c(O)cc(-c2ccc(C)cc2)cc1O [MLEB-1998]
The MIC of the first is 2-fold higher: 8 µg/mL (≈ 24.7 µM) for the first, 4 µg/mL (≈ 11.9 µM) for the second.

Compared with `CC(C)=CCC/C(C)=C/Cc1c(O)cc(C)cc1O` [MLEB-1850], `CC(C)=CCC/C(C)=C/Cc1c(O)cc(Br)cc1O` [MLEB-1917] is 2-fold lower in MIC: 8 µg/mL (≈ 30.7 µM) for the first, 4 µg/mL (≈ 12.3 µM) for the second.

`CC(C)=CCC/C(C)=C/Cc1c(O)cccc1O` [MLEB-1864] and `CC(C)=CCC/C(C)=C/Cc1c(O)cc(-c2cccc(O)c2)cc1O` [MLEB-19115] are the same in MIC: 4 µg/mL (≈ 16.2 µM) for the first, 4 µg/mL (≈ 11.8 µM) for the second.

First: CC(=O)c1ccc(-c2cc(O)c(C/C=C(\C)CCC=C(C)C)c(O)c2)cc1 [MLEB-1996]
Second: CC(C)=CCC/C(C)=C/Cc1c(O)cc(-c2ccc(Cl)cc2)cc1O [MLEB-19100]
The MIC of the first is 16-fold higher: 32 µg/mL (≈ 87.8 µM) for the first, 2 µg/mL (≈ 5.6 µM) for the second.

First: CC(C)=CCC/C(C)=C/Cc1c(O)cc(-c2cccc(C)c2C)cc1O [MLEB-1997]
Second: CC(C)=CCC/C(C)=C/Cc1c(O)cc(-c2c(F)cccc2F)cc1O [MLEB-19114]
The MIC of the first is 2-fold higher: 2 µg/mL (≈ 5.71 µM) for the first, 1 µg/mL (≈ 2.79 µM) for the second.

`CC(C)=CCC/C(C)=C/Cc1c(O)cc(-c2ccc(C(F)(F)F)cc2)cc1O` [MLEB-1999] and `CC(C)=CCC/C(C)=C/Cc1c(O)cc(-c2cccc(C(F)(F)F)c2)cc1O` [MLEB-19112] are the same in MIC: 1 µg/mL (≈ 2.56 µM) for the first, 1 µg/mL (≈ 2.56 µM) for the second.

Compared with `CC(C)=CCC/C(C)=C/Cc1c(O)cc(-c2cc(C(F)(F)F)ccc2F)cc1O` [MLEB-19102], `CC(C)=CCC/C(C)=C/Cc1c(O)cc(-c2cccc(C=O)c2)cc1O` [MLEB-19108] is 4-fold higher in MIC: 2 µg/mL (≈ 4.9 µM) for the first, 8 µg/mL (≈ 22.8 µM) for the second.

Compared with `CC(C)=CCC/C(C)=C/Cc1c(O)cc(-c2cnc3ccccc3c2)cc1O` [MLEB-19109], `CC(C)=CCC/C(C)=C/Cc1c(O)cc(-c2ccc(C=O)cc2)cc1O` [MLEB-19110] is 4-fold lower in MIC: 32 µg/mL (≈ 85.7 µM) for the first, 8 µg/mL (≈ 22.8 µM) for the second.

Each compound was assayed on Pore-TolC E. coli (assay: MIC determination (CLSI broth microdilution) against Pore-TolC E. coli). Details: Escherichia coli, 18 h, read-out: Pore-TolC E. coli MIC, Pore-TolC E. coli, 37° C., lowest concentration showing <10% bacterial growth.
Type: cell-based, Escherichia coli
Protocol: as §1, §2

Going from `CC(C)=CCC/C(C)=C/Cc1c(O)cc(C)cc1O` [MLEB-1850] to `CC(C)=CCC/C(C)=C/Cc1c(O)cccc1O` [MLEB-1864], the MIC falls from 2 µg/mL (≈ 7.68 µM) to 1 µg/mL (≈ 4.06 µM) (2-fold).

Compared with `CC(=O)c1ccc(-c2cc(O)c(C/C=C(\C)CCC=C(C)C)c(O)c2)cc1` [MLEB-1996], `CC(C)=CCC/C(C)=C/Cc1c(O)cc(-c2ccc(C)cc2)cc1O` [MLEB-1998] is lower in MIC: greater than 32 µg/mL for the first, 1 µg/mL (≈ 2.97 µM) for the second.

Compared with `CC(C)=CCC/C(C)=C/Cc1c(O)cc(-c2cccc(C)c2C)cc1O` [MLEB-1997], `CC(C)=CCC/C(C)=C/Cc1c(O)cc(-c2c(F)cccc2F)cc1O` [MLEB-19114] is 2-fold lower in MIC: 1 µg/mL (≈ 2.85 µM) for the first, 0.5 µg/mL (≈ 1.39 µM) for the second.

Going from `CC(C)=CCC/C(C)=C/Cc1c(O)cc(-c2ccc(C(F)(F)F)cc2)cc1O` [MLEB-1999] to `CC(C)=CCC/C(C)=C/Cc1c(O)cc(-c2cccc(C(F)(F)F)c2)cc1O` [MLEB-19112], the MIC falls from 2 µg/mL (≈ 5.12 µM) to 1 µg/mL (≈ 2.56 µM) (2-fold).

`CC(C)=CCC/C(C)=C/Cc1c(O)cc(-c2ccc(Cl)cc2)cc1O` [MLEB-19100] and `CC(C)=CCC/C(C)=C/Cc1c(O)cc(-c2cccc(O)c2)cc1O` [MLEB-19115] are the same in MIC: 2 µg/mL (≈ 5.6 µM) for the first, 2 µg/mL (≈ 5.91 µM) for the second.

First: CC(C)=CCC/C(C)=C/Cc1c(O)cc(-c2cc(C(F)(F)F)ccc2F)cc1O [MLEB-19102]
Second: CC(C)=CCC/C(C)=C/Cc1c(O)cc(-c2cnc3ccccc3c2)cc1O [MLEB-19109]
The MIC of the first is 16-fold lower: 2 µg/mL (≈ 4.9 µM) for the first, 32 µg/mL (≈ 85.7 µM) for the second.

Same assay, conditions: Pore-TolC E. coli; 37° C., 18 hours; lowest concentration showing <10% bacterial growth

Compared with `CC(C)=CCC/C(C)=C/Cc1c(O)cc(-c2cncnc2)cc1O` [MLAP-1913], `CC(C)=CCC/C(C)=C/Cc1c(O)cc(Br)cc1O` [MLEB-1917] is 4-fold lower in “Pore-TolC E. coli MIC” value: 2 µg/mL for the first, 0.5 µg/mL for the second.

Going from `CC(C)=CCC/C(C)=C/Cc1c(O)cc(-c2cccc(C(F)(F)F)c2)cc1O` [MLEB-19101] to `CC(C)=CCC/C(C)=C/Cc1c(O)cc(-c2cncnc2)cc1O` [MLEB-19129], the “Pore-TolC E. coli MIC” value rises from 1 µg/mL to 8 µg/mL (8-fold).

In the case of `CC(C)=CCC/C(C)=C/Cc1c(O)cc(Br)cc1O` [MLEB-19116], the “Pore-TolC E. coli MIC” value is reported as 4 µg/mL.

Each compound was assayed on E. coli (assay: Checkerboard broth microdilution (FICI) in combination with Colistin against E. coli). Details: combined with Colistin (0-0.5 μg/mL) against E. coli; compound 0-32 μg/mL; FICI <= 0.5 is synergy.
Type: cell-based, Escherichia coli
From the text: In some embodiments, a compound of the invention and another antibacterial agent are synergistic. In some embodiments, a fractional inhibitory concentration (FIC) index calculation (shown below) is used to show synergy of a compound of the invention and another antibacterial agent.
FICother antibacterial agent=[other antibacterial agent]/MICother antibacterial agent, where [other antibacterial agent] is the lowest inhibitory concentration of the other antibacterial agent in the presence of a compound of the invention.
The FIC index (FICI) is the sum of the FICcompound of the invention and FICother antibacterial agent. Drug-Drug interactions having an FICI of less than or equal to 0.5 are deemed synergistic. In some embodiments, a compound of the invention and another antibacterial agent have a FICI of about 0.5, about 0.4, about 0.3, about 0.2, about 0.1 or about 0. […]
The effect of another antibacterial agent on the activity of the compounds of the invention is evaluated. […] Fractional inhibitory concentration indices (FICIs) are determined by setting up standard checkerboard broth microdilution assays in 96-well microtiter plates with serially diluted 8 (or 10) concentrations of each drug (disclosed compounds and the other antibacterial agent). […] Plates are incubated at 37° C. for 18 hours, and optical density is read on a Tecan M1000 Infinite Pro plate reader at 600 nm. […]

With `CC(C)=CCC/C(C)=C/Cc1c(O)cc(C)cc1O` [MLEB-1850] the FICI was less than 0.5.
For `CC(C)=CCC/C(C)=C/Cc1c(O)cc(Br)cc1O` [MLEB-1917], the FICI was less than 0.375.
